Results published in patent publication US20080280891A1, “Anti-cancer agents and uses thereof” (Locus Pharmaceuticals, Inc., priority 2006, published 2008).

What was measured:
[1] = test system: MCF-7 breast cancer cells; assay: Cell cycle assay (Example 164), G2/M block in MCF-7 cells; assay type: cell-based; details: for activation at 0.1 µM / IC50: Homo sapiens, MCF7; for activation at 0.1 µM / MCF-7 G2/M Block 1 μM: 24 h, flow cytometry (PI); for activation at 0.1 µM: Table 4; for IC50: MCF-7, footnotes * and ** of Table 4, read-out: IC50 (footnote mark in column MCF-7 G2/M Block); for MCF-7 G2/M Block 1 μM: Table 3
Protocol: (§1) The adherent MCF-7 breast cancer cells and NCI-H522 non small cell lung cancer cells were grown and maintained in EMEM cell culture media containing 10% fetal calf serum.
(§2) Cells were allowed to adhere for 24 hrs. After adherence, cell culture media was changed to that containing 0.5% FCS. Thirty minutes post-media change, test compounds were added at a concentration of either 1.0 or 0.1 μM (as specified in the Tables). Twenty-four hours after test agent addition, cells were analyzed for cell cycle status as described below.
(§3) Cell cycle status was analyzed by flow cytometry. Briefly, cells were collected and washed with FACs buffer (Pharmingen) and resuspended and fixed in 1 mL of 80% ethanol for 1 hr. Cells were washed with FACs buffer and resuspended in propidium iodide(PI)/RNase staining buffer (Pharmingen). PI is a fluorescent dye that labels nucleic acids such as DNA. The fluorescence within a cell (in the presence of PI) is proportional to the amount of DNA within a cell. The cell content of DNA is an indicator of status in the cell cycle. […] Cells in the S phase have DNA content that lies between these extremes.
(§4) For testing of cell cycle effects of test agents the percentage of cells within the G1 and G2/M phase were measured.

[2] = test system: NCI-H522 non small cell lung cancer cells; assay: Cell cycle assay (Example 164), G2/M block in NCI-H522 cells; assay type: cell-based; details: Homo sapiens; for activation at 0.1 µM: 24 h, flow cytometry (PI)
Protocol: as §1, §2, §3, §4

Work on `COC(=O)Nc1cc(C(=O)c2cc(C)nc(N3CCOCC3)c2)cc(-c2cccc3[nH]ccc23)c1` [[3-(1H-Indol-4-yl)-5-(2-methyl-6-morpholin-4-yl-pyridine-4-carbonyl)-phenyl]-carbamic acid methyl ester] yielded an activation at 0.1 µM [1] of no less than 50% and an activation at 0.1 µM ([2]; Table 4) of no less than 50%.
`CC(=O)Nc1cc(-c2cccnc2)cc(-c2cccc3[nH]ccc23)c1` [N-[3-(1H-Indol-4-yl)-5-pyridin-3-yl-phenyl]-acetamide] was tested, and the activation at 0.1 µM [1] was no less than 50% and the activation at 0.1 µM ([2]; Table 4) was no less than 50%.
`COC(=O)Nc1cc(C(=O)c2cc(C)nc(C#N)c2)cc(-c2cccc3[nH]ccc23)c1` [[3-(2-Cyano-6-methyl-pyridine-4-carbonyl)-5-(1H-indol-4-yl)-phenyl]-carbamic acid methyl ester] gave an activation at 0.1 µM [1] of no less than 50% and an activation at 0.1 µM ([2]; Table 4) of no less than 50%.
`CS(=O)(=O)Nc1cc(-c2cccc(C(F)(F)F)c2)cc(-c2cccc3[nH]ccc23)c1` [N-[5-(1H-indol-4-yl)-3′-trifluoromethyl-biphenyl-3-yl]-methanesulfonamide] gave an activation at 0.1 µM [1] of no less than 50% and an activation at 0.1 µM ([2]; Table 4) of no less than 50%.
In the case of `COC(=O)Nc1cc(C(=O)c2ccnc(OC)c2)cc(-c2cccc3[nH]ccc23)c1` [[3-(1H-Indol-4-yl)-5-(2-methoxy-pyridine-4-carbonyl)-phenyl]-carbamic acid methyl ester], the activation at 0.1 µM [1] is reported as no less than 50% and the activation at 0.1 µM ([2]; Table 4) is reported as less than 50%.
`CS(=O)(=O)Nc1cc(C(=O)c2ccnc(N3CCCCC3)c2)cc(-c2cccc3[nH]ccc23)c1` [N-[3-(1H-Indol-4-yl)-5-(3,4,5,6-tetrahydro-2H-[1,2′]bipyridinyl-4′-carbonyl)-phenyl]-methanesulfonamide] was tested, and the activation at 0.1 µM [1] was less than 50% and the activation at 0.1 µM ([2]; Table 4) was no less than 50%.
In the case of `CS(=O)(=O)Nc1cc(-c2cccc([N+](=O)[O-])c2)cc(-c2cccc3[nH]ccc23)c1` [N-[5-(1H-indol-4-yl)-3′-nitro-biphenyl-3-yl]-methanesulfonamide], the activation at 0.1 µM [1] is reported as no less than 50% and the activation at 0.1 µM ([2]; Table 4) is reported as no less than 50%.
Work on `CC(=O)Nc1cc(-c2ccc(C(F)(F)F)cc2)cc(-c2cccc3[nH]ccc23)c1` [N-[5-(1H-Indol-4-yl)-4′-trifluoromethyl-biphenyl-3-yl]-acetamide] yielded an activation at 0.1 µM [1] of less than 50%, an IC50 [1] of 100 to 1000 nM and an activation at 0.1 µM ([2]; Table 4) of less than 50%. The IC50 ([2]; H522, footnotes * and ** of Table 4, read-out: IC50 (footnote mark in H522 G2/M Block)) was 100 to 1000 nM.
With `COC(=O)Nc1cc(C(=O)c2cccnc2)cc(-c2ccc(F)c3[nH]ccc23)c1` [[3-(7-Fluoro-1H-indol-4-yl)-5-(pyridine-3-carbonyl)-phenyl]-carbamic acid methyl ester] the activation at 0.1 µM [1] was no less than 50% and the activation at 0.1 µM ([2]; Table 4) was no less than 50%.
`CN(C)c1cc(C(=O)c2ccnc(N(C)C)c2)cc(-c2cccc3[nH]ccc23)c1` [[3-Dimethylamino-5-(1H-indol-4-yl)-phenyl]-(2-dimethylamino-pyridin-4-yl)-methanone] was tested, and the activation at 0.1 µM [1] was less than 50% and the activation at 0.1 µM ([2]; Table 4) was no less than 50%.
`CCc1ncccc1Nc1cc(O)cc(-c2cccc3[nH]ccc23)c1` [3-(2-Ethyl-pyridin-3-ylamino)-5-(1H-indol-4-yl)-phenol] was tested, and the “MCF-7 G2/M Block 1 μM” value [1] was “Y (Y indicates a 50% or greater increase in the number of cells in the G2/M phase, as compared to control)” and the activation at 0.1 µM ([2]; Table 3) was no less than 50%.
`COC(=O)Nc1cc(C(=O)c2cc(C)nc(N(C)C)c2)cc(-c2cccc3[nH]ccc23)c1` [[3-(2-Dimethylamino-6-methyl-pyridine-4-carbonyl)-5-(1H-indol-4-yl)-phenyl]-carbamic acid methyl ester] gave an activation at 0.1 µM [1] of no less than 50% and an activation at 0.1 µM ([2]; Table 4) of no less than 50%.
`COc1cc(C(=O)c2cc(NS(C)(=O)=O)cc(-c3cccc4[nH]ccc34)c2)cc(C)n1` [N-[3-(1H-Indol-4-yl)-5-(2-methoxy-6-methyl-pyridine-4-carbonyl)-phenyl]-methanesulfonamide] was tested, and the activation at 0.1 µM [1] was no less than 50% and the activation at 0.1 µM ([2]; Table 4) was no less than 50%.
With `COC(=O)Nc1cc(-c2ccncc2)cc(-c2cccc3[nH]ccc23)c1` [[3-(1H-Indol-4-yl)-5-pyridin-4-yl-phenyl]-carbamic acid methyl ester] the activation at 0.1 µM [1] was no less than 50% and the activation at 0.1 µM ([2]; Table 4) was no less than 50%.
In the case of `CS(=O)(=O)Nc1cc(-c2nc3ccccc3o2)cc(-c2cccc3[nH]ccc23)c1` [N-[3-Benzoxazol-2-yl-5-(1H-indol-4-yl)-phenyl]-methanesulfonamide], the activation at 0.1 µM [1] is reported as no less than 50% and the activation at 0.1 µM ([2]; Table 4) is reported as no less than 50%.
For `CS(=O)(=O)Nc1cc(C(=O)c2ccnc(N3CCOCC3)c2)cc(-c2cccc3[nH]ccc23)c1` [N-[3-(1H-Indol-4-yl)-5-(2-morpholin-4-yl-pyridine-4-carbonyl)-phenyl]-methanesulfonamide], the activation at 0.1 µM [1] was no less than 50% and the activation at 0.1 µM ([2]; Table 4) was no less than 50%.
`CC(=O)Nc1cc(C(=O)c2ccnc(N3CCOCC3)c2)cc(-c2cccc3[nH]ccc23)c1` [N-[3-(1H-Indol-4-yl)-5-(2-morpholin-4-yl-pyridine-4-carbonyl)-phenyl]-acetamide] gave an activation at 0.1 µM [1] of no less than 50% and an activation at 0.1 µM ([2]; Table 4) of no less than 50%.
With `COC(=O)Nc1cc(-c2cccnc2)cc(-c2cccc3[nH]ccc23)c1` [[3-(1H-Indol-4-yl)-5-pyridin-3-yl-phenyl]-carbamic acid methyl ester] the activation at 0.1 µM [1] was less than 50% and the activation at 0.1 µM ([2]; Table 4) was no less than 50%.
Molecule `COC(=O)Nc1cc(C(=O)c2ccnc(N3CCOCC3)c2)cc(-c2cccc3[nH]ccc23)c1` [[3-(1H-Indol-4-yl)-5-(2-morpholin-4-yl-pyridine-4-carbonyl)-phenyl]-carbamic acid methyl ester] has an activation at 0.1 µM [1] of no less than 50% and an activation at 0.1 µM ([2]; Table 4) of no less than 50%.
For `COC(=O)Nc1cc(C(=O)c2ccnc(Cl)c2)cc(-c2cccc3[nH]ccc23)c1` [[3-(2-Chloro-pyridine-4-carbonyl)-5-(1H-indol-4-yl)-phenyl]-carbamic acid methyl ester], the activation at 0.1 µM [1] was less than 50%, the IC50 [1] was 500 to 5000 nM and the activation at 0.1 µM ([2]; Table 4) was less than 50%.
With `CS(=O)(=O)Nc1cc(-c2ccc3c(c2)OCO3)cc(-c2cccc3[nH]ccc23)c1` [N-[3-benzo[1,3]dioxol-5-yl-5-(1H-indol-4-yl)-phenyl]-methanesulfonamide] the activation at 0.1 µM [1] was no less than 50% and the activation at 0.1 µM ([2]; Table 4) was no less than 50%.
In the case of `CN(C)c1ncccc1Nc1cc(O)cc(-c2cccc3[nH]ccc23)c1` [3-(2-Dimethylamino-pyridin-3-ylamino)-5-(1H-indol-4-yl)-phenol], the “MCF-7 G2/M Block 1 μM” value [1] is reported as “Y (Y indicates a 50% or greater increase in the number of cells in the G2/M phase, as compared to control)” and the activation at 0.1 µM ([2]; Table 3) is reported as no less than 50%.
In the case of `N#Cc1ccc(Nc2cc(O)cc(-c3cccc4[nH]ccc34)c2)cc1` [4-[3-Hydroxy-5-(1H-indol-4-yl)-phenylamino]-benzonitrile], the “MCF-7 G2/M Block 1 μM” value [1] is reported as “N (N indicates a less than 50% increase at this dose)” and the activation at 0.1 µM ([2]; Table 3) is reported as no less than 50%.
Work on `CC(=O)Nc1cc(-c2cccc(C)c2)cc(-c2cccc3[nH]ccc23)c1` [N-[5-(1H-Indol-4-yl)-3′-methyl-biphenyl-3-yl]-acetamide] yielded an activation at 0.1 µM [1] of no less than 50% and an activation at 0.1 µM ([2]; Table 4) of no less than 50%.
For `COc1cc(C(=O)c2cc(NS(C)(=O)=O)cc(-c3cccc4[nH]ccc34)c2)ccn1` [N-[3-(1H-Indol-4-yl)-5-(2-methoxy-pyridine-4-carbonyl)-phenyl]-methanesulfonamide], the “MCF-7 G2/M Block 1 μM” value [1] was “Y (Y indicates a 50% or greater increase in the number of cells in the G2/M phase, as compared to control)” and the activation at 0.1 µM ([2]; Table 3) was no less than 50%.
`COc1cc(C(=O)c2cc(C(N)=O)cc(-c3cccc4[nH]ccc34)c2)ccn1` [3-(1H-Indol-4-yl)-5-(2-methoxy-pyridine-4-carbonyl)-benzamide] showed an activation at 0.1 µM [1] of no less than 50% and an activation at 0.1 µM ([2]; Table 4) of no less than 50%.
